According to patent US10414740B2, “Glutaminase inhibitors and method of use” (Agios Pharmaceuticals, Inc., priority 2012, dated 2019):

The compounds below were run against T1, glutaminase (GAC) (Homo sapiens, UniProt O94925) (assay: glutaminase coupled endpoint assay (Example A)). Details: inhibition of glutaminase; IC50 tested in an assay of Example A or Example B.
T1 sequence (O94925 55-598 isoform O94925-3 limits assumed): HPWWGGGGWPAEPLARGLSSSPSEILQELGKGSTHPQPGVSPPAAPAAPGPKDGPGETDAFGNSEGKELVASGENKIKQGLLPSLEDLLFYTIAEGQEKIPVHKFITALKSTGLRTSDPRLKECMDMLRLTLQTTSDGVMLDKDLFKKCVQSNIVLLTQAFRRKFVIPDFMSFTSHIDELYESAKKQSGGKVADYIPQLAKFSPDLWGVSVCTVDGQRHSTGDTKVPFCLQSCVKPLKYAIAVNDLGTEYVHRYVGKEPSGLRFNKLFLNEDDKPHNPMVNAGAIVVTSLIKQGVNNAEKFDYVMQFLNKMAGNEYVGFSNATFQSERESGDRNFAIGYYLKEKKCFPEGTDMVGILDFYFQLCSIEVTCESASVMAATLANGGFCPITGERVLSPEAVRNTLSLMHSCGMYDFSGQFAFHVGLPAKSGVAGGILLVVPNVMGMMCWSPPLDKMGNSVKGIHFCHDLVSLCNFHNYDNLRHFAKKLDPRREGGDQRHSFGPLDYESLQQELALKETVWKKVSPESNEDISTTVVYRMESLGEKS
Assay type: biochemical
Outline: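 Coupled endpoint read-out: glutamate from GAC is converted by excess GDH, and diaphorase recycles NADH to NAD while reducing resazurin to fluorescent resorufin, so loss of signal means inhibition. Compound in DMSO is preincubated with enzyme for 60 min at room temperature before substrate is added. Hits are counterscreened against GDH/diaphorase alone.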

Compound	IC50 [nM]
Cn1c(=O)c2c(ncn2CC(=O)Nc2nnc(CCCCc3nnc(NC(=O)Cn4cnc5c4c(=O)n(C)c(=O)n5C)s3)s2)n(C)c1=O [Compound 41]	1000 to 10000
CC(C)CC(=O)Nc1nnc(CCCCc2nnc(NC(=O)CC(C)C)s2)s1 [Compound 115, N,N′-(5,5′-(butane-1,4-diyl)bis(1,3,4-thiadiazole-5,2-diyl))bis(3-methylbutanamide)]	500 to 1000
Nc1nnc(CCCCc2nnc(NC(=O)CCc3ccccc3O)s2)s1 [Compound 44]	1000 to 10000
O=C(Cc1ccccc1)Nc1nnc(CCCCCCc2nnc(NC(=O)Cc3ccccc3)s2)s1 [Compound 12, N,N′-(5,5′-(hexane-1,6-diyl)bis(1,3,4-thiadiazole-5,2-diyl))bis(2-phenylacetamide)]	1000 to 10000
Cc1cccc(OCC(=O)Nc2nnc(CCCCc3nnc(NC(=O)COc4cccc(C)c4)s3)s2)c1 [Compound 104]	1000 to 10000
O=C(Nc1nnc(CCCCc2nnc(NC(=O)C3CCC3)s2)s1)C1CCC1 [Compound 102, N,N′-(5,5′-(butane-1,4-diyl)bis(1,3,4-thiadiazole-5,2-diyl))dicyclobutanecarboxamide]	500 to 1000
O=C(Cc1ccccc1)Nc1nnc(CCCSCc2nnc(NC(=O)Cc3ccccc3)s2)s1 [Compound 6, 2-Phenyl-N-(5-(3-(((5-(2-phenylacetamido)-1,3,4-thiadiazol-2-yl)methyl)thio)propyl)-1,3,4-thiadiazol-2-yl)acetamide]	500 to 1000

Second part, the compound after the results:

IC50 [nM]	Compound
100 to 500	O=C(CCc1ccccc1Cl)Nc1nnc(CCCCc2nnc(NC(=O)CCc3ccccc3Cl)s2)s1 [Compound 91, N,N′-(5,5′-(butane-1,4-diyl)bis(1,3,4-thiadiazole-5,2-diyl))bis(3-(2-chlorophenyl)propanamide)]
100 to 500	O=C(Cc1cccnc1)Nc1nnc(CCCc2nnc(NC(=O)Cc3cccnc3)s2)s1 [Compound 26, N,N′-(5,5′-(propane-1,3-diyl)bis(1,3,4-thiadiazole-5,2-diyl))bis(2-(pyridin-3-yl)acetamide)]
100 to 500	COc1ccccc1OCC(=O)Nc1nnc(CCCCc2nnc(NC(=O)COc3ccccc3OC)s2)s1 [Compound 74]
< 100	COc1ccc(CC(=O)Nc2nnc(CCCCc3nnc(NC(=O)Cc4ccc(OC)cc4OC)s3)s2)c(OC)c1 [Compound 119, N,N′-(5,5′-(butane-1,4-diyl)bis(1,3,4-thiadiazole-5,2-diyl))bis(2-(2,4-dimethoxyphenyl)acetamide)]
100 to 500	CCOC(=O)CCCC(=O)Nc1nnc(CCCCc2nnc(NC(=O)CCCC(=O)OCC)s2)s1 [Compound 76, Diethyl 5,5′-(5,5′-(butane-1,4-diyl)bis(1,3,4-thiadiazole-5,2-diyl))bis(azanediyl)bis(5-oxopentanoate)]
< 100	O=C(Cc1cccnc1)Nc1nnc(CCCCc2nnc(NC(=O)Cc3cccnc3)s2)s1 [Compound 28, N,N′-(5,5′-(butane-1,4-diyl)bis(1,3,4-thiadiazole-5,2-diyl))bis(2-(pyridin-3-yl)acetamide)]
< 100	COc1ccc(CC(=O)Nc2nnc(CCS(=O)(=O)CCc3nnc(NC(=O)Cc4ccc(OC)cc4)s3)s2)cc1 [Compound 31, N,N′-(5,5′-(2,2′-sulfonylbis(ethane-2,1-diyl))bis(1,3,4-thiadiazole-5,2-diyl))bis(2-(4-methoxyphenyl)acetamide)]
100 to 500	O=C(CCc1cccnc1)Nc1nnc(CCS(=O)(=O)CCc2nnc(NC(=O)CCc3cccnc3)s2)s1 [Compound 35]
< 100	Cn1cc(CC(=O)Nc2nnc(CCCCc3nnc(NC(=O)Cc4cn(C)c5ccccc45)s3)s2)c2ccccc21 [Compound 130, N,N′-(5,5′-(butane-1,4-diyl)bis(1,3,4-thiadiazole-5,2-diyl))bis(2-(1-methyl-1H-indol-3-yl)acetamide)]
